Each block holds one compound with its values, some of them ahead of it.
Assays:
[1] = oral dasatinib therapy; cited from earlier work
M07e cells = assay: Cellular proliferation, [3H]thymidine uptake, Kit ligand dependent growth; type: cell-based; conditions: Homo sapiens, M-07e, read-out: IC50, M07e cells proliferation
Experimental: The immortalized human hematopoietic Philadelphia chromosome-positive cytokine independent R10(−) M07e^p210 cell line (46) was maintained in Iscove's modified Dulbecco's medium (Life Technologies, Inc., Grand Island, N.Y.) containing 10% FCS (Hyclone, Logan, Utah). The parental M07e megakaryoblastic cell line was a kind gift of Brian Druker and was maintained in the presence of 50 ng/mL kit ligand (SCF) as described (46-47) K562 was obtained from the ATCC. K562 was maintained in suspension in 90% RPMI 1640 medium supplemented with 10% FBS, 2 mM L-glutamine, 10 mM HEPES, 1 mM sodium pyruvate, 1.5 g/L sodium bicarbonate, 4.5 g/L […], 10% FBS, 100 IU/mL penicillin and 100 μg/ml streptomycin. Tumor cell cultures were maintained in a humidified atmosphere with 5% CO2 at 37° C. (NuAire).
. Data points for all assays were obtained in triplicate, and background incorporation from cell-free wells was determined and subtracted from all data points. The data was analyzed using a non-linear regression fit to a sigmoidal dose-response curve using Prism 4 (GraphPad Software, Inc).

[2] = test system: H1975 and H1975-DR lung cancer xenografts; assay: microPET competitive inhibition of tracer uptake by unlabeled Dasatinib; type: in vivo, SCID mouse
SRC = SRC (Homo sapiens, UniProt P12931); assay: biochemical
Sequence of SRC (P12931 whole entry): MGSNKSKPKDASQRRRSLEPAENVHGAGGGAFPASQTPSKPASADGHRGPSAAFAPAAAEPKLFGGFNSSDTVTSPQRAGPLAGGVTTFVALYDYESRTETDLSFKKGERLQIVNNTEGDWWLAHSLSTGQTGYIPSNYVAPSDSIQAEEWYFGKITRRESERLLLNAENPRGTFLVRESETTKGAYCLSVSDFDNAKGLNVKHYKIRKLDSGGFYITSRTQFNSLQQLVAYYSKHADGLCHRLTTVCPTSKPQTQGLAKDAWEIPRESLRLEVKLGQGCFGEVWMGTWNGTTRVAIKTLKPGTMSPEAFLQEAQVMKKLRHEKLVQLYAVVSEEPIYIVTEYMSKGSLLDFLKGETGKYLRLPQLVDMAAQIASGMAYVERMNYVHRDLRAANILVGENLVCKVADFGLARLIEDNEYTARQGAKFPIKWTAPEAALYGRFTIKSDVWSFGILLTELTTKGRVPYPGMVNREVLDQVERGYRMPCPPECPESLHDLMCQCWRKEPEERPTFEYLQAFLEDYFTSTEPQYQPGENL
Text: (§1) An ELISA-based assay was used in which the phosphorylation of an oligopeptide substrate was detected by an HRP-conjugated anti-p-Tyr (PY20) probe.

[3] = In vivo metabolism in mice (blood/plasma radio-HPLC); conditions: for Peak 3 [18F]-5 (16.9 min) % Radioactivity, parent: plasma
Experimental: Mice were injected i.v. with [^18F]-5 in the tail vein and sacrificed using carbon dioxide at 30, 60 and 120 min post injection. Each group contained three mice. Immediately after sacrifice, about 0.5 ml of blood was collected by cardiac puncture and deposited in a 1.5 ml Eppendorf tube. Disodium EDTA (2.5 mg) was used as anticoagulant. The samples were then maintained at 4° C. for subsequent procedures. The total radioactivity in each total blood sample was counted. The samples were then centrifuged at 4° C. at 2200×g. Radioactivity of the serum and pellet measured and about 50% of the total radioactivity was retained in the pellet. The serum was transferred to a 1.5 ml Eppendorf tube containing about […] of 60% acetonitrile in water and centrifuged again to precipitate any residual proteins. The supernatant was analyzed using HPLC and examined for metabolites. HPLC was carried out on a C-18 Shimadzu 4.6×250 mm HPLC column and eluted under gradient conditions 80% A (pH 5.5 50 mM NaOAc):20% B (CH3CN) to 20% A:80% B at 1 ml/min. Radioactivity was detected using Packard Radiomatic FLO-One/beta detector equipped with a PET flow cell containing BGO (bismuthgermanate) windows.

[4] = test system: K562 (CML) tumor xenografts; assay: microPET imaging of K562 xenograft; type: in vivo, athymic nu/nu mice
Experimental: All animal studies were carried out within the framework of an institutional IACUC approved protocol (No. 86-02-020). Athymic nu/nu mice (National Cancer Institute, Bethesda, Md.) were inoculated subcutaneously onto the right shoulder with 1×10^7 K562 cells mixed with Matrigel (BD Biosciences, San Jose, Calif.). K562 is a chronic myelogenous leukemia cell line cultured with IMDM (Iscove's modified Dulbecco's medium; prepared in-house) containing 4 mM L-glutamine, 1.5 g/L sodium bicarbonate, and 10% fetal bovine serum.
Three weeks following tumor inoculation, PET images of mice were obtained using FOCUS 120 microPET™ scanner (Siemens Preclinical Solutions, Knoxyille, Tenn.) with [^18F]-5. Mice were injected intravenously (via tail vein) with 14±1 MBq (375±25 μCi) of [^18F]-5 and imaged 60 minutes later under 2% (at 1 L/min) isoflurane anesthesia (Forane, Baxter Healthcare, Deerfield, Ill.). Image acquisition time was 15 min (t=60 to 75 min) using a 250-750 keV energy window and a 6 nsec timing window. List-mode data were sorted into sinograms by Fourier re-binning and reconstructed by filter back-projection without attenuation correction. Count data in the reconstructed images were converted to activity concentration (i.e. % of the injected dose per gram (% ID/gm)) using a system calibration factor determined using a ^18F-filled mouse-sized phantom. Visualization and analyses of microPET images were carried out using AsiPRO™ software (Siemens Preclinical Solutions, Knoxyille, Tenn.).
In vivo results have been obtained in athymic mice bearing subcutaneous K562 (CML) tumor xenografts in the right shoulder. [^18F]-5 (14±1 MBq, 375±25 μCi) was injected through the tail vein and the subjects were imaged in a microPET scanner. […] Tracer activity was evident within the tumor xenograft (white arrow) and was determined to be 1.1% of the injected dose by ROI (region of interest) analysis. […] The transaxial image was taken at the level of the known palpable tumor as shown in the coronal section (broken line). The intensity of the radiotracer activity is color-graded as depicted by the colored scale.

EGFR = biological target: T1, EGFR (Homo sapiens, UniProt P00533); assay: QuickScout ELISA kinase panel; type: biochemical; conditions: Table 3
T1 construct: purchased Carna Biosciences (QuickScout service)
Text: as §1

KIT = biological target: T2, KIT (Homo sapiens, UniProt P10721); assay: QuickScout ELISA kinase panel; type: biochemical; conditions: Table 3
T2 construct: purchased Carna Biosciences (Kobe, Japan), QuickScout service
T2 sequence (P10721 26-976): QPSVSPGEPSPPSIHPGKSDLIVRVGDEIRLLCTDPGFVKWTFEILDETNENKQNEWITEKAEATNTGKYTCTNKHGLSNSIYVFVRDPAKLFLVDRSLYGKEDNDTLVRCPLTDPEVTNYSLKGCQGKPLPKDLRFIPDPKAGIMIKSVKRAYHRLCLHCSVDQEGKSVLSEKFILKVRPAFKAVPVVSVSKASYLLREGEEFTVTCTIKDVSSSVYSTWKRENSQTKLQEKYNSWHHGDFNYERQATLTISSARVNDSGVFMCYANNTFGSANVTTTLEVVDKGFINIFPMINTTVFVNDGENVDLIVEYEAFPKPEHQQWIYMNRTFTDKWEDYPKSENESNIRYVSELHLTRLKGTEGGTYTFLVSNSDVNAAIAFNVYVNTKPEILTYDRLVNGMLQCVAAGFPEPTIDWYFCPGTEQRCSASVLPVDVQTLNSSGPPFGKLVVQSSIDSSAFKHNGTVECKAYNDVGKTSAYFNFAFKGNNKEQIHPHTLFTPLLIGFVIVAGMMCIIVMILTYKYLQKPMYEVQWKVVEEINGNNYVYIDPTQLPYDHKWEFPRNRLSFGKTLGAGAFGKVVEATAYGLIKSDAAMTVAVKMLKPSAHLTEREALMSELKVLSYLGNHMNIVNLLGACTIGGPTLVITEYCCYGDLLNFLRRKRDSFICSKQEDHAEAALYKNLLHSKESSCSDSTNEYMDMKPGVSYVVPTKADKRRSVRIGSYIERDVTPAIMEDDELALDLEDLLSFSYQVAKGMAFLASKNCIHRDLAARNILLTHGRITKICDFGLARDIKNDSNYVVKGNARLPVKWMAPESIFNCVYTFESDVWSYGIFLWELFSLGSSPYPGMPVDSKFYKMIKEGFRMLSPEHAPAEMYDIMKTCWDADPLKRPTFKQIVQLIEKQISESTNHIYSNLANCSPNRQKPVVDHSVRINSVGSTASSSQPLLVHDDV
Text: as §1

FGFR1 = biological target: T3, FGFR1 (Homo sapiens, UniProt P11362); assay: QuickScout ELISA kinase panel; type: biochemical; conditions: Table 3
T3 construct: purchased Carna Biosciences (QuickScout service)
Text: as §1

EphB4 = biological target: T4, EphB4 (Homo sapiens, UniProt P54760); assay: QuickScout ELISA kinase panel; type: biochemical
T4 construct: purchased Carna Biosciences (QuickScout service)
T4 sequence (P54760 16-987): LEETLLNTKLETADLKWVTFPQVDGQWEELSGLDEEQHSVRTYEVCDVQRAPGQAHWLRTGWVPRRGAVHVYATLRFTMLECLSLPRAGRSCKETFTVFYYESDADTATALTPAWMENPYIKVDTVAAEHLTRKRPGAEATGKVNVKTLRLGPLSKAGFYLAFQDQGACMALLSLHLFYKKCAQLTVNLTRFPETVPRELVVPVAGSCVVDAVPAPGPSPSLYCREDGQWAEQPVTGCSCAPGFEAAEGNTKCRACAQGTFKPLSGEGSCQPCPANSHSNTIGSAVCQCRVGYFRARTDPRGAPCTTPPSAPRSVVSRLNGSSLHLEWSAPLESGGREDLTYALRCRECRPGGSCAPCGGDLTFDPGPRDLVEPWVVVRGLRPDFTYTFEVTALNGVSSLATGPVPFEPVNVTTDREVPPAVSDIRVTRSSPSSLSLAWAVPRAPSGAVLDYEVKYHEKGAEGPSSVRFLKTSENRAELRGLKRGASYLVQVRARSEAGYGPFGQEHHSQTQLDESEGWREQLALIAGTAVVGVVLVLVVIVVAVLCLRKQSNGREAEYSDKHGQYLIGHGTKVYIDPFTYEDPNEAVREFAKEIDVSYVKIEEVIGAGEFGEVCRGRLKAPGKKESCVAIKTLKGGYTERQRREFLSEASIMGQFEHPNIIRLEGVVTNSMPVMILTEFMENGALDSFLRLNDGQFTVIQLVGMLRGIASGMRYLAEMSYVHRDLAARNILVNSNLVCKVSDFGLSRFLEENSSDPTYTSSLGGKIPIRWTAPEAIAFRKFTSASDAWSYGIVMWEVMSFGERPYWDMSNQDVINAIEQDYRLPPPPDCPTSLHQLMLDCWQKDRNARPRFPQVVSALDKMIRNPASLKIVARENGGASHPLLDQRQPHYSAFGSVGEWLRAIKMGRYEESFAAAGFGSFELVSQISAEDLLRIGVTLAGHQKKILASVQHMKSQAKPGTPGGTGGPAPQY
Text: (§2) . […] An ELISA-based assay was used in which the phosphorylation of an oligopeptide substrate was detected by an HRP-conjugated anti-p-Tyr (PY20) probe. […]. The data appears in Table 2 in Example 3.

CSK = biological target: T5, CSK (Homo sapiens, UniProt P41240); assay: QuickScout ELISA kinase panel; type: biochemical
T5 construct: purchased Carna Biosciences (QuickScout service)
Text: as §2

EphA2 = biological target: T6, EphA2 (Homo sapiens, UniProt P29317); assay: QuickScout ELISA kinase panel; type: biochemical
T6 construct: purchased Carna Biosciences (QuickScout service)
T6 sequence (P29317 24-976): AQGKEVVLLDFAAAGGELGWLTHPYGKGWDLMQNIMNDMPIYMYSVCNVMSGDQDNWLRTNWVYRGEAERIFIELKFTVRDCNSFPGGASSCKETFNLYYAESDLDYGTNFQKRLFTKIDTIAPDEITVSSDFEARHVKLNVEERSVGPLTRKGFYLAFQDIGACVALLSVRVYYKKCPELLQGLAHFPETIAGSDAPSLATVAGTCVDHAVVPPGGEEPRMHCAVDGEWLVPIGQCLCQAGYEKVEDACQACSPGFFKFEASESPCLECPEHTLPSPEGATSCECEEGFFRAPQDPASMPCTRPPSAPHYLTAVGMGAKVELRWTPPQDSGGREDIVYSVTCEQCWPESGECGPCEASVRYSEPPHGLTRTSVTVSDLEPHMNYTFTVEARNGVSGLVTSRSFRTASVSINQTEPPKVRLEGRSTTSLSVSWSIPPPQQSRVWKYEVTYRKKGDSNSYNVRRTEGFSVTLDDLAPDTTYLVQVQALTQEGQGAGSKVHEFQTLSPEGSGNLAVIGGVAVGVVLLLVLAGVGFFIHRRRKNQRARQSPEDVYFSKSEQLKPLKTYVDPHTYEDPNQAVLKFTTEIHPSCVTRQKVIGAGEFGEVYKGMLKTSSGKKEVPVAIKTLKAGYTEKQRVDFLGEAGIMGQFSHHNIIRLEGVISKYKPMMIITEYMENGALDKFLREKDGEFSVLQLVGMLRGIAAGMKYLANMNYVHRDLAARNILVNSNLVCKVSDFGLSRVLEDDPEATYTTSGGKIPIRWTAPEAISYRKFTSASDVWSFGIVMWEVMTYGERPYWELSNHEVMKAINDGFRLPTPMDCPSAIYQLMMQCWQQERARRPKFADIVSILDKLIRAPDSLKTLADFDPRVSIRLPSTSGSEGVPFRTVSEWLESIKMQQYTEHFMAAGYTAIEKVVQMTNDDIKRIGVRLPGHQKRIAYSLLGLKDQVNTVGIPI
Text: as §2

PDGFR— = biological target: T7, PDGFR— (Homo sapiens, UniProt P16234); assay: QuickScout ELISA kinase panel; type: biochemical
T7 construct: purchased Carna Biosciences (Kobe, Japan), QuickScout service
T7 sequence (P16234 550-1089 limits assumed): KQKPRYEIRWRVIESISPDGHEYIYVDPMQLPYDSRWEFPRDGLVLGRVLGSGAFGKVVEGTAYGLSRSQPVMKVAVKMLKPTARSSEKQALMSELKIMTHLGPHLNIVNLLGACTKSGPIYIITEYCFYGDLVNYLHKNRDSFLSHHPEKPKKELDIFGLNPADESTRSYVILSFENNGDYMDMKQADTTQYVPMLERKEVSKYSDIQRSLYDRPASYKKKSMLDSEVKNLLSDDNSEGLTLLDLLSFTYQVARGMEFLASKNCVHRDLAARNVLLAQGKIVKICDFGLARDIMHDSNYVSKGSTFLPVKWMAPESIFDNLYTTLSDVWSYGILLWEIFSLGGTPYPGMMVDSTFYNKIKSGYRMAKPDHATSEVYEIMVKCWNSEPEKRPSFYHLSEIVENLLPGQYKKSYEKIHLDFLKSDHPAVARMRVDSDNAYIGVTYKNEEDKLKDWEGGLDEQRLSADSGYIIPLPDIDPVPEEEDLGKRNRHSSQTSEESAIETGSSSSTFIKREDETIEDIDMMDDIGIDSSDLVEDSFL
Text: as §2

TEC = biological target: T8, TEC (Homo sapiens, UniProt P42680); assay: QuickScout ELISA kinase panel; type: biochemical
T8 construct: purchased Carna Biosciences (Kobe, Japan), QuickScout service
T8 sequence (P42680 1-631): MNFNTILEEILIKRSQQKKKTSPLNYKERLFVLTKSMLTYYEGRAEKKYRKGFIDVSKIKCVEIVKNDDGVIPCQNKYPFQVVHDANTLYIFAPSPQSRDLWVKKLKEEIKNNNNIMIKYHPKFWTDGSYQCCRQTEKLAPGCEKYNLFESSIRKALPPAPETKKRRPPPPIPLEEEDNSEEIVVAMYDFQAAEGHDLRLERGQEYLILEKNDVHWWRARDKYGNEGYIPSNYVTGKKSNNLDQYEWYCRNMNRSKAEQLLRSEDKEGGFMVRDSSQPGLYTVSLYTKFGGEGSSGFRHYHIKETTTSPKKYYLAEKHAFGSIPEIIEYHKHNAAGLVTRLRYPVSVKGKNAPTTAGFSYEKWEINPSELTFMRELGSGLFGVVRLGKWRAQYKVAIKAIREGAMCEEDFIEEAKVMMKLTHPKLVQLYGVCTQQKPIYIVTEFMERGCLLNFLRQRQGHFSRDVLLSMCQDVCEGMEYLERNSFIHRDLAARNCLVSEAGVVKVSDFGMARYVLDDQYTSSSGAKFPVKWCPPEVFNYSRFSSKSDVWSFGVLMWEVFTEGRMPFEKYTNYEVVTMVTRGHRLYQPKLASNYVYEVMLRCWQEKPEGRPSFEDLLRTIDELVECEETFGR
Text: as §2

ACK = biological target: T9, ACK (Homo sapiens, UniProt Q07912); assay: QuickScout ELISA kinase panel; type: biochemical
T9 construct: purchased Carna Biosciences (QuickScout service)
T9 sequence (Q07912 whole entry): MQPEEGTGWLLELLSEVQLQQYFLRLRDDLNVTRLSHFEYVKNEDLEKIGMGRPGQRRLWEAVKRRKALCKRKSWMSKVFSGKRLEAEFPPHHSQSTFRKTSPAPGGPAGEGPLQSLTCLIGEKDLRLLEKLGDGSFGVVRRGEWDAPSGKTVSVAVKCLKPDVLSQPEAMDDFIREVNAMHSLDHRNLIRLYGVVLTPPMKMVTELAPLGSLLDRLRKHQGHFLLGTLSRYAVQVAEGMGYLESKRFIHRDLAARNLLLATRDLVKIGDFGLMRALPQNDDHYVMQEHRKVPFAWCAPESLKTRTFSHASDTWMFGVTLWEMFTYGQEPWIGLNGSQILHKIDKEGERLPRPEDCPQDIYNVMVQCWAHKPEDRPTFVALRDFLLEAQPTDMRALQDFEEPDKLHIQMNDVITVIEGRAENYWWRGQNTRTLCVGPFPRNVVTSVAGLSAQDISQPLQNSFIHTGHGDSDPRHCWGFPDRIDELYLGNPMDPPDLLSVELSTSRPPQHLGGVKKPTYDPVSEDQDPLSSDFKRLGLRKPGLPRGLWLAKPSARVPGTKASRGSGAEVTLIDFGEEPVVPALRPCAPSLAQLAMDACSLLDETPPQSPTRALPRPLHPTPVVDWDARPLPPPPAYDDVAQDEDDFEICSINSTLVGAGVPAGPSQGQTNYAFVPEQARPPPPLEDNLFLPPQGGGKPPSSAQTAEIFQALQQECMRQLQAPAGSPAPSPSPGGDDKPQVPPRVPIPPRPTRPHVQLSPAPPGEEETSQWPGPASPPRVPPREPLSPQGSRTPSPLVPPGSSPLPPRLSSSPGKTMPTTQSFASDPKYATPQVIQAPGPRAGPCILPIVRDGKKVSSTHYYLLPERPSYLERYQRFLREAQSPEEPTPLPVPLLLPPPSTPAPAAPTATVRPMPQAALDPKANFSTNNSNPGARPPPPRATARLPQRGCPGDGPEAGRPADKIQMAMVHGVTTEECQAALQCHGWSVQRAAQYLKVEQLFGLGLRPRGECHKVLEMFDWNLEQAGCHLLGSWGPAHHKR
Text: as §2

ABL = ABL (Homo sapiens, UniProt P00519); assay: QuickScout ELISA kinase panel; type: biochemical; set-up: purchased Carna Biosciences (QuickScout service); conditions: Table 3
Text: as §1

JAK3 = biological target: T10, JAK3 (Homo sapiens, UniProt P52333); assay: QuickScout ELISA kinase panel; type: biochemical
T10 construct: purchased Carna Biosciences (QuickScout service)
Text: as §2

MET = biological target: T11, MET (Homo sapiens, UniProt P08581); assay: QuickScout ELISA kinase panel; type: biochemical
T11 construct: purchased Carna Biosciences (QuickScout service)
Text: as §2

TYRO3 = biological target: T12, TYRO3 (Homo sapiens, UniProt Q06418); assay: QuickScout ELISA kinase panel; type: biochemical
T12 construct: purchased Carna Biosciences (QuickScout service)
Text: as §2

FLT3 = biological target: T13, FLT3 (Homo sapiens, UniProt P36888); assay: QuickScout ELISA kinase panel; type: biochemical
T13 construct: purchased Carna Biosciences (Kobe, Japan), QuickScout service
Text: as §2

Compound: Cc1nc(Nc2ncc(C(=O)Nc3c(C)cccc3Cl)s2)cc(N2CCN(CCO)CC2)n1.O [Dasatinib, N-(2-chloro-6-methylphenyl)-2-[[6-[4-(2-hydroxyethyl)-1-piperazinyl]-2-methyl-4-pyrimidinyl]amino]-5-thiazole carboxamide monohydrate, reference compound]
patients with severe myelosuppression [1]: > 50%
IC50 (M07e cells): 1.2 ± 0.8 nM
effect of unlabeled Dasatinib on [18F]-5 uptake ([2]; Dasatinib 30 mg/kg IP): competitive inhibition of tracer uptake in the tumors and organs

EC50 (SRC): 2.6 nM
total blood radioactivity retained in the pellet ([3]; mouse blood centrifuged at 2200 x g after i.v. injection): about 50%
Peak 3 [18F]-5 (16.9 min) % Radioactivity, parent ([3]; 30 min post injection): 31 ± 11%
Peak 3 [18F]-5 (16.9 min) % Radioactivity, parent ([3]; 60 min post injection): 9 ± 3%
Peak 3 [18F]-5 (16.9 min) % Radioactivity, parent ([3]; 120 min post injection, one trial only): 8%
metabolism in plasma over time course ([3]; two-hour time course, HPLC of plasma): metabolized significantly
tumor uptake of tracer ([2]; H1975 right, H1975-DR left shoulder, before Dasatinib): tumor uptake is evident bilaterally
tracer activity within the tumor xenograft by ROI analysis ([4]; 60 minutes after i.v. injection, one representative mouse): 1.1 % of the injected dose
uptake in bone ([4]; microPET 60-75 min): no significant uptake
K562 tumor uptake in mice ([4]; mouse, in vivo): significant K562 tumor uptake
EC50 (EGFR): 270 nM
EC50 (KIT): 1.3 nM
EC50 (FGFR1): 390 nM
EC50 (EphB4; Table 3): 3.1 nM
EC50 (CSK; Table 3): 5 nM
EC50 (EphA2; Table 3): 1.9 nM
EC50 (PDGFR—; Table 3): 16 nM
EC50 (TEC; Table 3): 1.9 nM
EC50 (ACK; Table 3): 20 nM
EC50 (ABL): 0.6 nM
Compound: Cc1nc(Nc2ncc(C(=O)Nc3c(C)cccc3Cl)s2)cc(N2CCN(CC[18F])CC2)n1 [[^18F]-5]
route of clearance ([4]; microPET 60-75 min): cleared via the hepatobiliary route predominantly

Compound: CN[C@@H]1C[C@H]2O[C@@](C)([C@@H]1OC)n1c3ccccc3c3c4c(c5c6ccccc6n2c5c31)C(=O)NC4 [Staurosporine, reference compound]
inhibition at 3 µM (SRC; read-out: % Inhibition of Kinase Activity, SRC, Staurosporine at 3000 nM): 89.8%
inhibition at 10 µM (EphB4; read-out: % Inhibition of Kinase Activity, EphB4): 94.1%
inhibition at 0.003 µM (JAK3): 95.3%
inhibition at 0.3 µM (CSK; read-out: % Inhibition of Kinase Activity, CSK): 89.3%
inhibition at 0.3 µM (MET): 90%
inhibition at 1 µM (TYRO3): 95.3%
inhibition at 10 µM (EphA2; read-out: % Inhibition of Kinase Activity, EphA2): 92.6%
inhibition at 0.003 µM (PDGFR—; read-out: % Inhibition of Kinase Activity, PDGFR—): 88.4%
inhibition at 0.3 µM (TEC; read-out: % Inhibition of Kinase Activity, TEC): 92.5%
inhibition at 0.003 µM (FLT3): 96.4%
inhibition at 0.03 µM (ACK; read-out: % Inhibition of Kinase Activity, ACK): 96.4%

Reference: US20100226853A1 (priority 2007, published 2010)
